# Test results reported in patent US8703767B2, “Substituted N-(3-(pyrimidin-4-yl)phenyl)acrylamide analogs as tyrosine receptor kinase BTK inhibitors” (University of Utah Research Foundation, priority 2011, dated 2014).
# Assays:
# [1] = tested on: OPM2 cells; assay: Cell viability assay in OPM2 cells with endogenous levels of BTK; assay type: cell-based; conditions: Homo sapiens, OPM-2, absence of overexpressed BTK
# Method: (§1) The cells were grown as described above, and for the assay cells were freshly harvested and then were plated in […] of appropriate media (as described above) at a density of 1000 cells per well in standard solid white-walled 384-well plates. Cells were allowed to attach by incubation overnight at 37° C. and 5% CO2. Test compounds were diluted to 10× concentrations in the appropriate media for the cell used (containing 3% DMSO) and […] of these dilutions were appropriate wells containing the cells. Test compounds were typically tested in triplicate (i.e. a given concentration of compound was assayed in triplicate wells). The plates containing the drug-treated cells and appropriate controls were incubated for 96 hours. At the end of the incubation, […] of ATP-lite (PerkinElmer, Inc., Waltham, Mass.) reagent were added to each well and luminescence signal was measured on an EnVision microplate reader.
# (§2) The compounds were assessed in a cell-viability assay in OPM2 cells that either expressed endogenous levels of BTK or overexpressed BTK from an expression construct. […] Cell viability or proliferation was determined using the ATPLite Luminescence Assay (PerkinElmer, Inc., Waltham, Mass.); a decrease in luminescence activity correlates with a decrease in cell viability or proliferation.
# [2] = tested on: OPM2 cells overexpressing BTK; assay: Cell viability assay in OPM2 cells overexpressing BTK; assay type: cell-based; conditions: Homo sapiens, OPM-2, presence of overexpressed BTK
# Method: as §1, §2
# [3] = tested on: Tec family of kinase, as well as EGFR and ErbB4; assay: Kinase profiling against a panel of 40 protein kinases; assay type: biochemical; conditions: 200 nM of test compound, ATP at Km apparent
# Method: The specificity of kinase inhibition was assessed with a representative compound, N-(3-(5-chloro-2-((4-morpholinophenyl)amino)pyrimidin-4-yl)phenyl)acrylamide, by determining the activity of this test compound against a panel of protein kinases. Kinase profiling was performed against a focus panel of kinases relevant to BTK and the Tec family of protein kinases. […] The results from this screen confirmed good activity against the Tec family of kinase, as well as EGFR and ErbB4. These later two kinases are known to have a cysteine residue in a position suitable for reaction with the Michaels acceptor of the disclosed compounds.
# [4] = target: wild-type EGFR (ErbB1) (Homo sapiens (Human), UniProt P00533); assay: LanthaScreen Eu Kinase Binding Assay, wild-type EGFR; conditions: tracer displacement
# Sequence of wild-type EGFR (ErbB1) (P00533 25-1210): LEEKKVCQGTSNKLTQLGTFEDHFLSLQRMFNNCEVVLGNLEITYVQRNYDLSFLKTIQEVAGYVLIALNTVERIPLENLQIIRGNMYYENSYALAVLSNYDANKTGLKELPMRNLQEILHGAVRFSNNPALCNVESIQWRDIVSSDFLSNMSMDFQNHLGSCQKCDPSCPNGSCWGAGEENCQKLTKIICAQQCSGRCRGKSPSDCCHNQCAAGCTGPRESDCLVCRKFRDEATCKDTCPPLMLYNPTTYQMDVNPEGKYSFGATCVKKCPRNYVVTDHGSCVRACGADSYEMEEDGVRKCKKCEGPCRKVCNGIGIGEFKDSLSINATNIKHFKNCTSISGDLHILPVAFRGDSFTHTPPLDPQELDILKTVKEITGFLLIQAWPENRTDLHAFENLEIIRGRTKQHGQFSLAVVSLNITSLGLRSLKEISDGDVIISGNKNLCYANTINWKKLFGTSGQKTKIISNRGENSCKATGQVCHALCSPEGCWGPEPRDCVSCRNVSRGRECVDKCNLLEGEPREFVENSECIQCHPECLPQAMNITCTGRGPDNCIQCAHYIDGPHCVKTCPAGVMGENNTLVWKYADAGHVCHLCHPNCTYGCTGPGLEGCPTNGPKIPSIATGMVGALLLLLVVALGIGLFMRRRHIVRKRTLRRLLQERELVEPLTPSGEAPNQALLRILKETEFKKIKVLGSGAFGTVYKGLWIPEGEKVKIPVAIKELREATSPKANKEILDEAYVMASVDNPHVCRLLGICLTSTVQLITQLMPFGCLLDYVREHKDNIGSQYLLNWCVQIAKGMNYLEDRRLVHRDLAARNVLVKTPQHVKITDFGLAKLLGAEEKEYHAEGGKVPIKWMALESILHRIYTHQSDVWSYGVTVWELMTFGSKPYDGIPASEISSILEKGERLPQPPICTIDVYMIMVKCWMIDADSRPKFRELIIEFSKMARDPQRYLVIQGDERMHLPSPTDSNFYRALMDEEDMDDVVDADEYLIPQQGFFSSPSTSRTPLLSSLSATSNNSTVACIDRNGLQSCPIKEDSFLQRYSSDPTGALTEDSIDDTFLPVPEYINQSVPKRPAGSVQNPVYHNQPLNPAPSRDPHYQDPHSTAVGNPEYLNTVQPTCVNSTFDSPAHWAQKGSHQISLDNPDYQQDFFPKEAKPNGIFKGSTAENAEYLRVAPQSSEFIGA
# Method: (§3) Based on the results obtained in the foregoing experiment, representative compounds (N-(3-(5-chloro-2-((4-morpholinophenyl)amino)pyrimidin-4-yl)phenyl)acrylamide and N-(3-(6-((4-morpholinophenyl)amino)-1H-pyrazolo[3,4-d]pyrimidin-4-yl)phenyl)acrylamide) were assayed against wild-type and a mutant form (T790M) of EGFR. The compound activity against these kinases was determined using LanthaScreen™ Eu Kinase Bindng Assay (Invitrogen division of Life Technologies, Inc., Grand Island, N.Y.). The assay measures the activity of a compound to bind and displace a proprietary, Alexa Fluor® 647-labeled, ATP-competitive kinase inhibitor scaffold (kinase tracer) to EGFR.
# [5] = Pharmacokinetic and bone marrow distribution study; assay type: in vivo; conditions: CD1 mice, 5 mg/kg iv
# Method: To determine the ability of a disclosed compound, N-(3-(5-chloro-2-((4-morpholinophenyl)amino)pyrimidin-4-yl)phenyl)acrylamide, to partition to the bone, a pharmacokinetic study in mice was carried out and coupled with a bone marrow distribution study (see FIG. 18). Briefly, CD1 mice were dosed intravenously (“iv”) with 5 mg/kg of the test compound and three animals per time point (5 min to 8 hrs) were sacrificed. Blood (plasma) and bone marrow tissue (femur) were collected from each animal and analyzed by LC/MS for standard PK parameters. […] The baseline distribution to the bone marrow of the compound was also determined.
# [6] = target: mutant form of EGFR (T790M) (Homo sapiens (Human), UniProt P00533, T790M); assay: LanthaScreen Eu Kinase Binding Assay, EGFR T790M; conditions: tracer displacement
# Sequence of mutant form of EGFR (T790M) (P00533 25-1210 T790M): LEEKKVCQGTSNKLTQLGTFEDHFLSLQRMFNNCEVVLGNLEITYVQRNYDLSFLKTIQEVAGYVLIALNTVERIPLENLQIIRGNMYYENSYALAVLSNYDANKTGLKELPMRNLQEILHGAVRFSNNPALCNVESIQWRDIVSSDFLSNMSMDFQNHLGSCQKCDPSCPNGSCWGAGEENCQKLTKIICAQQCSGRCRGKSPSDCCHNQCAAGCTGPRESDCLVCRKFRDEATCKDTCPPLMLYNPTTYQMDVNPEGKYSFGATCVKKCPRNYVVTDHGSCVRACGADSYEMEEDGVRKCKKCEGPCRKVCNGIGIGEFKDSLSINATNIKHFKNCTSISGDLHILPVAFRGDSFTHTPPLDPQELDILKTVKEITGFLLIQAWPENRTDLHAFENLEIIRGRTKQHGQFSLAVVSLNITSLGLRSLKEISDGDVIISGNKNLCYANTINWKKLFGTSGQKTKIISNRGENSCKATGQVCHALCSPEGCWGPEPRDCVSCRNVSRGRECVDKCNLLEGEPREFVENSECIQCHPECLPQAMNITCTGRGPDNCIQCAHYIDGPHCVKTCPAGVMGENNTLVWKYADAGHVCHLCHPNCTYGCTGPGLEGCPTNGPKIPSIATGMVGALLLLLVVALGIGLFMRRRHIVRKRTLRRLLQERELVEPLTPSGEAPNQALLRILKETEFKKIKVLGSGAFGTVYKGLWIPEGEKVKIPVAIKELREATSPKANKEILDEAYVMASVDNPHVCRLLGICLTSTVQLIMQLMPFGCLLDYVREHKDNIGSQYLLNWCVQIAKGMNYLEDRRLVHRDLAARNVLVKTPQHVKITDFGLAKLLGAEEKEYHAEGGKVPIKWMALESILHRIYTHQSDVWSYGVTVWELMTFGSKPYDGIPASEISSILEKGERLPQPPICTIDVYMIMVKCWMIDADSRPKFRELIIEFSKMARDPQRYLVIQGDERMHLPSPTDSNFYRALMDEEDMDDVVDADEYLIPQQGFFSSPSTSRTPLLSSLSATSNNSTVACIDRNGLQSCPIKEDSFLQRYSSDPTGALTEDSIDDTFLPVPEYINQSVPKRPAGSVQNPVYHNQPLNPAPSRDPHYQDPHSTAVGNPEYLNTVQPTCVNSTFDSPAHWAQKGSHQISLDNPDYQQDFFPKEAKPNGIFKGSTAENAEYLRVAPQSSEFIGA
# Method: as §3
# [7] = target: recombinant full-length human BTK kinase (Homo sapiens (Human), UniProt Q06187); assay: BTK kinase assay: ADP generation assay; assay type: biochemical; conditions: 60 nM BTK, 1.6 μM ATP, 20 μM MBP substrate, 60 min
# Sequence of recombinant full-length human BTK kinase (Q06187 whole entry): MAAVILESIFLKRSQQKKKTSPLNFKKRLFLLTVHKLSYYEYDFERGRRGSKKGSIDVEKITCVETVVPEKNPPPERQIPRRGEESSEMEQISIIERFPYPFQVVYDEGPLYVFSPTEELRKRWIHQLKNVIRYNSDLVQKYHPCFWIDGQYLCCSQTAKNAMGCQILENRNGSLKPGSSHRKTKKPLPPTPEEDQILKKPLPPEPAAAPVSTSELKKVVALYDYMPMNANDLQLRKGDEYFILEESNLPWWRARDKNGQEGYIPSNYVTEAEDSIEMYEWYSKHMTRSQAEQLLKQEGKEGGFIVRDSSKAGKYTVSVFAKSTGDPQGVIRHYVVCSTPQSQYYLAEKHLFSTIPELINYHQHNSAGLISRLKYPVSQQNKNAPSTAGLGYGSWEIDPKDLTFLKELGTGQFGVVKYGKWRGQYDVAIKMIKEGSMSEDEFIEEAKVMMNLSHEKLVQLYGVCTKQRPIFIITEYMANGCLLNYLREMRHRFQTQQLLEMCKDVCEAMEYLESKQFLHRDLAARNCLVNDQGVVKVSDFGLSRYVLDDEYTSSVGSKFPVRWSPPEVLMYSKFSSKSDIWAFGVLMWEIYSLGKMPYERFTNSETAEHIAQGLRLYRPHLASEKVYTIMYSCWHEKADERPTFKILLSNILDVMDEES
# Method: Test compounds were diluted to desired concentrations in kinase reaction buffer and briefly incubated with recombinant full-length human BTK kinase with a (His)6 tag (81.3 kDa; Invitrogen Corporation, Carlsbad, Calif.). The assay as described is based on volumes used in a standard 384 well format using solid, white-wall plates. The reaction was subsequently initiated by the addition of ATP and myelin basic protein (MBP) substrate (Millipore Corporation, Waltham, Mass.). Composition of the assay reaction mixture ([…]) was: 5% v/v DMSO, 60 nM BTK, 1.6 μM ATP, and 20 μM MBP substrate. After incubation at room temperature for 60 min, […] (Promega Corporation, Madison, Wis.) was added to each well and incubated for an additional 40 minutes. The reagent stopped the kinase reaction and depleted the unconsumed ATP. Kinase Detection reagent ([…]; Promega Corporation) was then added to each well. The Kinase Detection reagent comprises reagents to convert ADP to ATP and provide luciferase and luciferin to detect ATP. Luminescence was measured on an EnVision microplate reader (PerkinElmer). The amount of luminescence from each reaction is directly correlated with BTK kinase activity. Percent inhibition and IC50 values were calculated by comparing enzyme activity in drug-treated wells to the appropriate controls.
# (§4) IC50 values are determined using GraphPad Prism 5 software. The data were entered as an X-Y plot into the software as percent inhibition for each concentration of the drug. The concentration values of the drug were log transformed and the nonlinear regression was carried out using the “sigmoidal dose-response (variable slope)” option within the GraphPad software to model the data and calculate IC50 values. The IC50 values reported are the concentration of drug at which 50% inhibition was reached.
# [8] = target: BTK kinase (Homo sapiens (Human), UniProt Q06187); assay: BTK kinase assay: time resolved-FRET (HTRF) assay; assay type: biochemical; conditions: 10 nM BTK, 60 μM ATP, 1 μM substrate, 60 min
# Sequence of BTK kinase (Q06187 whole entry): as above
# Method: The secondary assay was a time resolved-FRET kinase assay. Test compound are diluted to desired concentrations in kinase reaction buffer and briefly incubated with BTK kinase (as described above; Invitrogen). The reaction is initiated by the addition of ATP and enzyme substrate, HTRF® KinEASE™-TK Substrate-biotin (Cisbio US, Bedford, Mass.). The composition of the reaction (10 μl) was: 1% v/v DMSO, 10 nM BTK, 60 μM ATP, and 1 μM substrate. After incubation at room temperature for 60 min, the enzyme reaction is stopped by EDTA-containing buffer, which also contains europium-labeled (Eu^3+-Cryptate) anti-phosphotyrosine antibody (Cisbio) and Streptavidin-XL665 (Cisbio). The europium-labeled antibody generates a time-resolved FRET signal with the Stepavidin-XL665, which binds to the biotinylated TK substrate through the streptavidin conjugate when the substrate is phosphorylated. After one hour incubation at room temperature, fluorescence was measured with excitation of 320 nm and dual emission of 615 and 665 nm on an EnVision microplate reader.
# as §4
# [9] = tested on: Ramos RA-1; assay: Cell viability assay (ATP-lite), Ramos RA-1; assay type: cell-based; conditions: Homo sapiens, 96 hours
# Method: (§5) All cell lines were cultured in RPMI-1640 media supplemented with 10% fetal bovine serum (“FBS”) and 1% penicillin/streptomycin (100 IU/mL penicillin and 100 μg/mL streptomycin) at 37° C. and 5% CO2. ATCC is the American Type Culture Collection (Manassas, Va.), and DSMZ is the Deutsche Sammlung von Mikroorganismen and Zellkulturen GmbH (German Collection of Microorganims and Cell Cultures; Braunschweig, Germany). The cell lines typically used in these studies are indicated below in Table II.
# as §1, §4
# The ability of compounds to inhibit the viability of cultured cells was determined using the cell viability assay described above. Activity data for representative compounds is shown below in Table III below for the compounds tested using the indicated cell lines (Ramos RA-1, GRANTA-519, and BxPC-3). IC50 values were determined as described above. If an IC50 is indicated as “n.d.”, it was not determined in the indicated cell line.
# [10] = tested on: BxPC-3; assay: Cell viability assay (ATP-lite), BxPC-3; assay type: cell-based; conditions: Homo sapiens, 96 hours
# Method: as §5
# (§6) The cells were grown as described above, and for the assay cells were freshly harvested and then were plated in […] of appropriate media (as described above) at a density of 1000 cells per well in standard solid white-walled 384-well plates. Cells were allowed to attach by incubation overnight at 37° C. and 5% CO2. […] At the end of the incubation, […] of ATP-lite (PerkinElmer, Inc., Waltham, Mass.) reagent were added to each well and luminescence signal was measured on an EnVision microplate reader.
# (§7) IC50 values are determined using GraphPad Prism 5 software. […]
# (§8) The ability of compounds to inhibit the viability of cultured cells was determined using the cell viability assay described above. […] IC50 values were determined as described above. If an IC50 is indicated as “n.d.”, it was not determined in the indicated cell line.
# [11] = tested on: GRANTA-519; assay: Cell viability assay (ATP-lite), GRANTA-519; assay type: cell-based; conditions: Homo sapiens, 96 hours
# Method: as §5, §6, §7, §8
smiles,measurement,setting,value
C=CC(=O)Nc1cccc(-c2nc(Nc3ccc(N4CCOCC4)cc3)ncc2Cl)c1 [N-(3-(5-chloro-2-((4-morpholinophenyl)amino)pyrimidin-4-yl)phenyl)acrylamide],IC50,[1],~5050 nM
same,IC50,[2],~586 nM
same,percent inhibition in kinase profiling,[3],good activity
same,IC50,[4],253 nM
same,"dwell time, bone marrow compared to plasma",[5],higher in the bone marrow compared to plasma
same,plasma concentrations,[5],high plasma concentrations
same,time after which compound cleared in the elimination phase,[5],> 10 min
same,fold lower concentration in bone marrow than in plasma,"[5]; mouse, bone marrow (femur) versus plasma, read-out: concentration in bone marrow compartment compared to plasma levels (fold less)",~50
same,half-life,"[5]; mouse, plasma",~45 min
"C=CC(=O)Nc1cccc(-c2nc(Nc3ccc(N4CCOCC4)cc3)nc3[nH]ncc23)c1 [N-(3-(6-((4-morpholinophenyl)amino)-1H-pyrazolo[3,4-d]pyrimidin-4-yl)phenyl)acrylamide]",IC50,[4],105 nM
same,IC50,[6],2.67 nM
C=CC(=O)Nc1cccc(-c2nc(Nc3ccc(N4CCOCC4)cc3)nc3[nH]ncc23)c1 [compound 1],IC50,[7],0.079 µM
same,IC50,[8],0.045 µM
same,IC50,[9],> 30 µM
same,IC50,[10],7 µM
C=CC(=O)Nc1cccc(-c2nc(Nc3ccc(N4CCN(C)CC4)cc3)nc3[nH]ncc23)c1 [compound 2],IC50,[9],18.8 µM
same,IC50,[11],13.7 µM
C=CC(=O)Nc1cccc(-c2nc(Nc3ccc(N4CCOCC4)c(F)c3)nc3[nH]ncc23)c1 [compound 3],IC50,[7],0.23 µM
same,IC50,[8],0.126 µM
C=CC(=O)Nc1cccc(-c2nc(Cl)nc3[nH]ncc23)c1 [compound 4],IC50,[7],0.263 µM
same,IC50,[8],3.77 µM
same,IC50,[9],> 30 µM
same,IC50,[11],> 30 µM
C=CC(=O)Nc1cccc(-c2nc(Cl)ncc2Nc2ccccc2)c1 [compound 5],IC50,[7],1.81 µM
C=CC(=O)Nc1cccc(-c2nc(Nc3ccc(N4CCOCC4)cc3)ncc2Nc2ccccc2)c1 [compound 6],IC50,[7],> 100 µM
C=CC(=O)Nc1cccc(-c2nc(Nc3ccc(N4CCOCC4)c(F)c3)ncc2Cl)c1 [compound 7],IC50,[7],0.518 µM
same,IC50,[8],0.287 µM
C=CC(=O)Nc1cccc(-c2nc(Nc3ccc(N4CCOCC4)cc3)ncc2Cl)c1 [compound 8],IC50,[7],0.033 µM
same,IC50,[8],0.047 µM
same,IC50,[9],20.9 µM
same,IC50,[10],22.2 µM
C=CC(=O)Nc1cccc(-c2nc(Nc3ccc(N4CCN(C)CC4)cc3)ncc2Cl)c1 [compound 9],IC50,[7],1.27 µM
C=CC(=O)Nc1cccc(-c2nc(Cl)ncc2Br)c1 [compound 10],IC50,[7],4.7 µM
C=CC(=O)Nc1cccc(-c2nc(Cl)ncc2Cl)c1 [compound 11],IC50,[7],14.4 µM
C=CC(=O)Nc1cccc(-c2nc(Cl)ncc2Nc2cccc(F)c2)c1 [compound 12],IC50,[7],0.829 µM
